The subject of series [1] is trypsin, chymotrypsin, lipase, bile salt. As to the kind of experiment: Stability against GI enzymes in simulated intestinal fluid (SIF). It counts as in vitro ADME. Conditions: SIF: trypsin 5,000 BAEE U/mL, chymotrypsin 20 IU/mL, lipase 400 IU/mL, bile salt 10 mM, Tris 50 mM pH 8.0; mixed 1:1 with sample (INS 0.2 mg/mL); 37 °C, 100 rpm; 0–240 min; HPLC; first-order fit; n = 3.
Experimental: Simulated intestinal fluid (SIF) was prepared by adding trypsin (5,000 BAEE U/mL), chymotrypsin (20 IU/mL), lipase (400 IU/mL), and bile salt (10 mM) to the Tris buffer (50 mM, pH 8.0). […] Then, 250 µL of either SGF or SIF was added to the 250 µL of each formulation for enzymatic degradation. The mixture was transferred to a shaking incubator (SI-900R; JeioTech, Daejeon, Korea) and incubated at 37 °C under shaking (100 rpm). Finally, 500 mL of cooled 0.1% TFA in methanol was added at predetermined time points (0, 5, 15, 30, 60, and 120 min) to quench the enzymatic reaction. For intestinal enzyme study, the reaction was continued for 240 min.

Series [2] is described as follows: log P by shake-flask method. Conditions: shake-flask n-octanol/distilled water, mutually pre-saturated; 25 °C, 24 h, 50 rpm; HPLC of INS in both phases; HIP complexes at INS:counterion 1:6; mean, n = 3. It is filed as physicochemical. How it is done:
The log P values of different HIP complexes were determined by the shake-flask method (Zhang et al., [2021]). Prior to the experiment, distilled water and n-octanol were poured into a separatory funnel, vigorously shaken, and then allowed to settle for 24 h to mutually saturate. Stock solutions of HIP complexes in the saturated n-octanol were prepared and mixed with pre-saturated distilled water at a 1:10 (vol/vol) ratio. INS was dissolved in saturated distilled water and then mixed with pre-saturated n-octanol. The tube was incubated at 25 °C for 24 h with continuous shaking (50 rpm) and allowed to separate for 1 h, after which it was centrifuged at 16,000g for 10 min. Afterward, samples from both phases were carefully analyzed by HPLC.

A further series addresses T1, pepsin (Sus scrofa, UniProt P00791).
T1 construct: purchased Sigma–Aldrich Chemical Co. (St. Louis, MO, USA)
Kind of series: Stability against GI enzymes in simulated gastric fluid (SGF). It is filed as in vitro ADME. To be noted: SGF: pepsin 2,000 U/mL in pH 1.2 solution, mixed 1:1 with sample (INS 0.2 mg/mL), 37 °C, 100 rpm, HPLC, n = 3. The procedure:
Simulated gastric fluid (SGF) was prepared by adding pepsin to pH 1.2 solution to a concentration of 2,000 U/mL. Simulated intestinal fluid (SIF) was prepared by adding trypsin (5,000 BAEE U/mL), chymotrypsin (20 IU/mL), lipase (400 IU/mL), and bile salt (10 mM) to the Tris buffer (50 mM, pH 8.0). […] Then, 250 µL of either SGF or SIF was added to the 250 µL of each formulation for enzymatic degradation. The mixture was transferred to a shaking incubator (SI-900R; JeioTech, Daejeon, Korea) and incubated at 37 °C under shaking (100 rpm). Finally, […] of cooled 0.1% TFA in methanol was added at predetermined time points (0, 5, 15, 30, 60, and 120 min) to quench the enzymatic reaction. For intestinal enzyme study, the reaction was continued for 240 min. Finally, the amount of INS remaining in the obtained samples was quantified by HPLC, as described earlier.

Series [3] has as its system streptozotocin-induced diabetic Sprague–Dawley rats. Kind of series: Pharmacodynamic study in diabetic rats (blood glucose level). It is filed as in vivo, rat. Conditions: for AAC0–8h (area above the blood glucose level curve, % of initial, 0–8 h) / BGLmin (minimum blood glucose level, % of initial levels) / Tmin (time to reach BGLmin): mean ± SD, n = 5–7. The procedure: To establish animal models of type 1 diabetes mellitus, male Sprague–Dawley rats were injected intraperitoneally with freshly prepared single doses of streptozotocin (60 mg/kg) dissolved in citrate buffer (0.1 M, pH 4.5). The successful induction of diabetes was corroborated by an increase in blood glucose levels after five days. Only the rats with fasting blood glucose levels higher than 250 mg/dL were considered diabetic.
All rats were fasted for 12 h before the experiment, with free access to water. […] Subsequently, blood samples were collected from the tail vein at different time intervals (0, 0.5, 1, 1.5, 2, 3, 4, 5, 6, and 8 h) and tested using a glucometer (GreenDoctor, GREENCROSS MEDIS Co., Chungnam, Korea). Based on the blood glucose level at 0 h (initial), each blood glucose level was converted to the relative level (% of initial). A value of 100% of the relative level was chosen as a reference point (upper limit) for the determination of the area above the blood glucose (% of initial)–time curve (AAC) values for decreased blood glucose levels.

T1 sequence (P00791 60-385): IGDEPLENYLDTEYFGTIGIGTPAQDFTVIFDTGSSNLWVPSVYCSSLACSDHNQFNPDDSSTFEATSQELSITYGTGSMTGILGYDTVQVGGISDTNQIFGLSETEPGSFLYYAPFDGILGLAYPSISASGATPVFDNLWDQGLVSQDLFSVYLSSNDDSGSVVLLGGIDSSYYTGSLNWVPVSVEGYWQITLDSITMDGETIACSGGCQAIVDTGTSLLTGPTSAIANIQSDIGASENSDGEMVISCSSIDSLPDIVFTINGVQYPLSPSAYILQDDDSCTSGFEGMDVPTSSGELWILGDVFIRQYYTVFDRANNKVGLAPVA

For the substance Insulin, the “Rate constant of INS degradation, simulated intestinal fluid” value in series [1] was 0.1980 min⁻¹. Further, the “log P” value in series [2] is on record as “–1.61”. For the same substance, the “Rate constant of INS degradation, simulated gastric fluid” value in the series with pepsin (0–120 min, first-order fit) is 0.1854 min⁻¹. Also, the “Half-life of INS, simulated gastric fluid” value with pepsin was 3.74 min. Besides, in series [3] (SC injection, 5 IU/kg), the “AAC0–8h (area above the blood glucose level curve, % of initial, 0–8 h)” value stood at 439.29 ± 30.00 %·h; the “BGLmin (minimum blood glucose level, % of initial levels)” value turned out to be 22.78 ± 1.92%; the “Tmin (time to reach BGLmin)” value stood at 3.20 ± 0.84 h. Further, in series [3] (oral gavage, 50 IU/kg), the “AAC0–8h (area above the blood glucose level curve, % of initial, 0–8 h)” value is on record as “–44.47 ± 38.33 %·h”; the “BGLmin (minimum blood glucose level, % of initial levels)” value came out at 97.92 ± 1.23%; the “Tmin (time to reach BGLmin)” value worked out at 2.75 ± 0.25 h. The “antidiabetic effects (blood glucose level versus time)” value in series [3] (oral, 50 IU/kg) is “negligible”.

Source of the values: paper PMC9448375 (Drug Delivery, 2022).
